From ChEMBL document CHEMBL4425117 (Bioorg Med Chem Lett, 2016)

What was measured:
Endothelin-1 receptor [1] = target: T1, Endothelin-1 receptor (Homo sapiens, UniProt P25101); assay: Displacement of [125I]-ET-1 from human ETA receptor expressed in CHO cell membranes after 2 hrs by scintillation counting
T1 sequence (P25101 whole entry): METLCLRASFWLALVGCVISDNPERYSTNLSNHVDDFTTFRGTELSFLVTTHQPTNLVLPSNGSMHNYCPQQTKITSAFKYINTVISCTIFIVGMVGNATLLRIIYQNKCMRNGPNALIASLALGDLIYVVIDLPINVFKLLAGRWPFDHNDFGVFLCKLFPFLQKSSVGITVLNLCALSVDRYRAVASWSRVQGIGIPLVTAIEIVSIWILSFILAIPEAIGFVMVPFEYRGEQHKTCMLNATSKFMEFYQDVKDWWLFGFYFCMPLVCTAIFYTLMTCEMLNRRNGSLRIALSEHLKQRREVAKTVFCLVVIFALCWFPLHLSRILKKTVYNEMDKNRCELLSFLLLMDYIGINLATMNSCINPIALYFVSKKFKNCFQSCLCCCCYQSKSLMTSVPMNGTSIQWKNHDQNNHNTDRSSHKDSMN

[2] = target: T2, Endothelin receptor type B (Homo sapiens, UniProt P24530); assay: Displacement of [125I]-ET-1 from human ETB receptor expressed in CHO cell membranes after 2 hrs by scintillation counting
T2 sequence (P24530 whole entry): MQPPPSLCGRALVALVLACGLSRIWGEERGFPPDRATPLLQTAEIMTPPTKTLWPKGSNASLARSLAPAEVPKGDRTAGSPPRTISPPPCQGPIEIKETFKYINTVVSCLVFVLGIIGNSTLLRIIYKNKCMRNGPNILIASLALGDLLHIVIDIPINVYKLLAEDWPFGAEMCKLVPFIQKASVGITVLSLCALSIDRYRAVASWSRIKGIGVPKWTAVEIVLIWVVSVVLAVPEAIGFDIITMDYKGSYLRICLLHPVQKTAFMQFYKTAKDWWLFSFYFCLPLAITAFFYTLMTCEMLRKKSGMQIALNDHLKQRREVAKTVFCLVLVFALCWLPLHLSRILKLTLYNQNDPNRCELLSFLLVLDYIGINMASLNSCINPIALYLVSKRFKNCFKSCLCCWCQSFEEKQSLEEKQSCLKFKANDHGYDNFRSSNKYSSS

Endothelin-1 receptor [3] = target: T1, Endothelin-1 receptor; assay: Displacement of radioligand from ETA receptor (unknown origin) expressed in fall armyworm sf9 cell membranes
Endothelin-1 receptor [4] = target: T3, Endothelin-1 receptor (Rattus norvegicus, UniProt P26684); assay: Displacement of 125I-ET1 from ETA receptor in rat A7R5 cells; format: cell-based
T3 sequence (P26684 whole entry): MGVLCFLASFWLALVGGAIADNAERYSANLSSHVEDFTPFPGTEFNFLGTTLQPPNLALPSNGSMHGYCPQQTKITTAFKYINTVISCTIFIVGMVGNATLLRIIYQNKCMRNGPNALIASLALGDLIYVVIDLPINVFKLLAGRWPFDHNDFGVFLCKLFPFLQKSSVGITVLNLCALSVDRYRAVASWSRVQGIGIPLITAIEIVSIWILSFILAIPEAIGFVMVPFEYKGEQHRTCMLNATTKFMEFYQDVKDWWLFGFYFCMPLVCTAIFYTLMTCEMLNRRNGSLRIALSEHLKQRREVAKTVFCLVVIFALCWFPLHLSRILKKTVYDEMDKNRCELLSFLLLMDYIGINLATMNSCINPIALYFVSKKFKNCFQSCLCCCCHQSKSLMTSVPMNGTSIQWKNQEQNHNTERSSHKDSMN

Endothelin-1 receptor [5] = target: T3, Endothelin-1 receptor; assay: Antagonist activity at rat aortic ring ETA receptor in presence of ET1; conditions: read-out: pA2 (converted)
Endothelin-1 receptor [6] = target: T1, Endothelin-1 receptor; assay: Antagonist activity at ETA receptor (unknown origin)
[7] = target: T2, Endothelin receptor type B; assay: Displacement of radioligand from ETB receptor in human placenta cell membranes
[8] = target: T2, Endothelin receptor type B; assay: Antagonist activity at human ETB receptor expressed in CHO cells in presence of ET1; format: cell-based
Endothelin-1 receptor [9] = target: T1, Endothelin-1 receptor; assay: Displacement of 125I-ET1 from human placenta cell membrane ETA receptor expressed in Baculovirus-infected insect cells
[10] = target: T4, Endothelin receptor type B (Sus scrofa, UniProt P35463); assay: Displacement of 125I-ET1 from pig ETB receptor transfected in grivet COS7 cells; format: cell-based
T4 sequence (P35463 whole entry): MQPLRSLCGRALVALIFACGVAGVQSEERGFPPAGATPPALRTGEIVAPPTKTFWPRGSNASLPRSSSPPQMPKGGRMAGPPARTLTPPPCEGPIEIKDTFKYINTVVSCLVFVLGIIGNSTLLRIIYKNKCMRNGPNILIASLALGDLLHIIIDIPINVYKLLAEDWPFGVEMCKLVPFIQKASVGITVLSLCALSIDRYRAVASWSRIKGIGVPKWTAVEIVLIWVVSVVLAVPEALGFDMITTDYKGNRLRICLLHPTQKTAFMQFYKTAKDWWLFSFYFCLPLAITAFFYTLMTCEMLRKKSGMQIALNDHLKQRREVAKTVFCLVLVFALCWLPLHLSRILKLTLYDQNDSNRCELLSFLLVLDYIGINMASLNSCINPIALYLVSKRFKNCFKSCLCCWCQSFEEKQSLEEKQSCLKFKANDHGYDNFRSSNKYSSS

Endothelin-1 receptor [11] = target: T1, Endothelin-1 receptor; assay: Displacement of 125I-ET1 from ETA receptor (unknown origin) expressed in CHO cells; format: cell-based

Row | Structure (SMILES) | IC50 (Endothelin-1 receptor [1]) [nM] | IC50 [2] [nM] | further results
1 | COc1cc(OC)nc(O[C@H](C(=O)O)C(OC)(c2ccccc2)c2ccccc2)n1 | – | – | Ki (Endothelin-1 receptor [1]): 6 nM; Ki [2]: 371 nM
2 | COc1ccccc1Oc1c(OCCO)nc(-c2ncccn2)nc1N(C)S(=O)(=O)c1ccc(C(C)(C)C)cc1 | – | – | IC50 (Endothelin-1 receptor [3]): > 100000 nM
3 | O=C(O)CCNS(=O)(=O)Nc1ncnc(OCCOc2ncc(Br)cn2)c1-c1ccc(Br)cc1 | 0.7 | – | –
4 | COc1ccccc1Oc1c(NS(=O)(=O)c2ccc(C(C)(C)C)cc2)nc(-c2ncccn2)[nH]c1=O | – | – | IC50 (Endothelin-1 receptor [3]): 133000 nM
5 | CSc1cnc(OCCOc2ncnc(NS(=O)(=O)c3ccc(C(C)(C)C)cc3)c2-c2cc3ccccc3s2)nc1 | – | – | IC50 (Endothelin-1 receptor [4]): 0.026 nM
6 | COc1ccccc1Oc1c(NS(=O)(=O)CCc2cccs2)nc(N2CCOCC2)nc1OCCOC(=O)Nc1ccccn1 | 1 | 100 | –
7 | CCCCNS(=O)(=O)Nc1ncnc(OCCOc2ncc(OC)cn2)c1-c1ccc(Br)cc1 | 0.5 | 210 | –
8 | COc1ccccc1Oc1c(NS(=O)(=O)c2ccc(C(C)(C)C)cc2)nc(-c2ncccn2)nc1OCCO [BOSENTAN] | – | – | Kb (Endothelin-1 receptor [5]): 39.8 nM
9 | COc1ccccc1Oc1c(NS(=O)(=O)CCc2ccccc2)nc(-c2ncccn2)nc1OCCO | – | – | IC50 (Endothelin-1 receptor [6]): 25 nM
10 | O=S(=O)(Nc1ncnc(OCCO)c1-c1ccc(Cl)cc1)c1ccc(Cl)cc1 | – | – | IC50 (Endothelin-1 receptor [3]): 10000 nM; IC50 [7]: 8500 nM
11 | COc1ccccc1Oc1c(NS(=O)(=O)/C=C/c2ccccc2)nc(-c2ncccn2)nc1OCCO | – | – | IC50 (Endothelin-1 receptor [4]): 1.6 nM
12 | Cc1ccc(=O)n([C@@H](C(=O)NS(=O)(=O)c2ccc(C(C)C)cc2)c2ccc3c(c2)OCO3)n1 | 29 | 3.5 | –
13 | CCCCNS(=O)(=O)Nc1ncnc(OCCOc2ncc(SC)cn2)c1-c1ccc(Br)cc1 | 0.3 | 63 | –
14 | COC(c1ccccc1)(c1ccccc1)[C@H](Oc1nc(C)cc(C)n1)C(=O)O [AMBRISENTAN] | 1 | – | –
15 | CCCNS(=O)(=O)Nc1ncnc(OCCOc2ncc(SC)cn2)c1Oc1ccccc1OC | 9.4 | 315 | –
16 | CCCc1nc(SC2CCC(CC(=O)O)CC2)c(C(=O)O)n1Cc1cc2c(cc1Cl)OCO2 (stereo not given) | 1.1 | – | –
17 | COc1nc(C)cnc1NS(=O)(=O)c1cccnc1-c1ccc(-c2nnco2)cc1 [ZIBOTENTAN] | – | > 100 | –
18 | COc1ccc(-c2nc(NS(=O)(=O)c3ccc(C(C)(C)C)cc3)c(Oc3ccccc3OC)c(OC[C@H](O)CO)n2)cc1 | – | – | IC50 (Endothelin-1 receptor [3]): 6800 nM; IC50 [8]: 69 nM
19 | CCCNS(=O)(=O)Nc1ncnc(OCCOc2ncc(OC)cn2)c1-c1ccc(Br)cc1 | 2.4 | 516 | –
20 | COc1ccccc1Oc1c(NS(=O)(=O)c2ccc(C(C)(C)C)cc2)ncnc1OCCO | – | – | IC50 (Endothelin-1 receptor [3]): 1500 nM; Kb (Endothelin-1 receptor [5]): 955 nM
21 | O=S(=O)(Nc1ncnc(OCCO)c1-c1ccc(Cl)cc1)c1ccc(C(F)(F)F)cc1 | – | – | IC50 (Endothelin-1 receptor [3]): 18000 nM; Kb (Endothelin-1 receptor [5]): 1580 nM; IC50 [7]: 2000 nM
22 | COc1ccccc1Oc1c(NS(=O)(=O)c2ccc(C(C)C)cn2)nc(-c2ccncc2)nc1OC | – | – | IC50 (Endothelin-1 receptor [9]): 1.4 nM
23 | Cc1ccc(-c2c(NS(=O)(=O)c3ccc(C(C)(C)CO)cc3)ncnc2OCCOc2ncc(Br)cn2)cc1 | – | – | IC50 [10]: 41 nM
24 | COc1ccccc1Oc1c(NS(=O)(=O)c2ccc(C(C)C)cn2)nc(-c2ccnc(-c3nnn[nH]3)c2)nc1OCCO [TEZOSENTAN] | – | – | IC50 (Endothelin-1 receptor [11]): 18 nM; IC50 [7]: 21 nM
25 | COc1ccccc1Oc1c(NS(=O)(=O)c2ccc(C(C)(C)C)cc2)nc(-c2ccccc2)nc1OCCO | – | – | IC50 (Endothelin-1 receptor [3]): 800 nM; Kb (Endothelin-1 receptor [5]): 126 nM

Row | Structure (SMILES) | IC50 (Endothelin-1 receptor [1]) [nM] | IC50 [2] [nM] | further results
26 | CCCNS(=O)(=O)Nc1ncnc(OCCOc2ncc(Br)cn2)c1Oc1ccccc1OC | 15.4 | 1430 | –
27 | COc1ccccc1Oc1c(NS(=O)(=O)c2ccc(C(C)(C)C)cc2)nc(N2CCOCC2)nc1OCCC(=O)Nc1ccccc1C(C)C | – | – | IC50 [10]: 0.86 nM; IC50 (Endothelin-1 receptor [4]): 63 nM
28 | COc1ccccc1Oc1c(NS(=O)(=O)c2ccc(C)cn2)nc(-c2ccnc(-c3nnn[nH]3)c2)nc1OCCO [CLAZOSENTAN] | – | – | IC50 (Endothelin-1 receptor [11]): 1.7 nM; IC50 [7]: 175 nM
29 | CC(C)(C)c1ccc(S(=O)(=O)Nc2nc(-c3ncccn3)nc(OCCO)c2Oc2ccccc2O)cc1 | – | – | IC50 (Endothelin-1 receptor [3]): 26000 nM
30 | CNS(=O)(=O)Nc1ncnc(OCCOc2ncc(SC)cn2)c1-c1ccc(Cl)cc1 | 3.3 | 555 | –
31 | Cc1ccc(-c2c(NS(=O)(=O)c3ccc(C(C)(C)C)cc3)ncnc2OCCO)cc1 | – | – | IC50 (Endothelin-1 receptor [9]): 1000 nM
32 | CC#CCOc1nc(-c2ccnc(-c3nnn[nH]3)c2)nc(NS(=O)(=O)c2ccc(C(C)(C)C)cc2)c1Oc1ccccc1OC | 33 | 29 | –
33 | COCCOc1nc(-c2ncccn2)nc(NS(=O)(=O)CCc2ccccc2)c1Oc1ccccc1OC | – | – | IC50 (Endothelin-1 receptor [4]): 3.6 nM
34 | CCCNS(=O)(=O)Nc1ncnc(OCCOc2ncc(SC)cn2)c1Oc1cccc(OC)c1 | 1.4 | 90 | –
35 | CCNS(=O)(=O)Nc1ncnc(OCCOc2ncc(SC)cn2)c1-c1ccc(Br)cc1 | 0.7 | – | –
36 | COc1cnc(OCCOc2nc(-c3ccncc3)nc(NS(=O)(=O)NCc3ccccc3)c2-c2ccc(Cl)cc2)nc1 | 2 | 569 | –
37 | COc1ccc(Cl)c(Oc2c(NS(=O)(=O)c3ccc(C(C)(C)C)cc3)nc(N3CCOCC3)nc2OCCO)c1 | – | – | IC50 (Endothelin-1 receptor [9]): 35 nM
38 | CCCNS(=O)(=O)Nc1ncnc(OCCOc2ncc(SC)cn2)c1-c1ccc(Br)cc1 | 0.1 | 82 | –
39 | COc1ccccc1Oc1c(NS(=O)(=O)c2ccccc2)nc(-c2ncccn2)nc1OCCO | – | – | IC50 (Endothelin-1 receptor [3]): 1500 nM
40 | COc1ccccc1Cc1c(NS(=O)(=O)c2ccc(C(C)(C)C)cc2)ncnc1OCCO | – | – | IC50 (Endothelin-1 receptor [9]): 2000 nM
41 | CCCCNS(=O)(=O)Nc1ncnc(OCCOc2ncc(SC)cn2)c1-c1ccc(Cl)cc1 | 0.3 | – | –
42 | CCCNS(=O)(=O)Nc1ncnc(OCCOc2ncc(SC)cn2)c1-c1ccc(Cl)cc1 | 1.5 | 686 | –
43 | COc1cccc(Oc2c(NS(=O)(=O)c3ccc(SC)cc3)cc(C(=O)Nc3ccccc3)cc2OCCO)c1 | – | – | IC50 (Endothelin-1 receptor [9]): > 100000 nM
44 | Cc1ccc(-c2c(NS(=O)(=O)/C=C/c3ccccc3)ncnc2OCCOc2ncc(Br)cn2)cc1 | 2 | – | –
45 | CCCc1nc(C)ccc1O[C@@H](C(=O)NS(=O)(=O)c1ccc(C(C)C)cc1)c1ccc2c(c1)OCO2 | – | – | Ki (Endothelin-1 receptor [1]): 0.11 nM; Ki [2]: 25 nM
46 | COc1ccccc1Oc1c(NS(=O)(=O)c2ccc(C)cn2)nc(-c2ccnc(-c3noc(=S)[nH]3)c2)nc1OCC1CCCO1 (stereo not given) | 6 | 288 | –
47 | COc1ccc(Cl)c(Oc2c(NS(C)(=O)=O)ncnc2OCCOc2ncc(S(C)(=O)=O)cn2)c1 | 3 | 542 | –
48 | Cc1ccc(C2=C(C(=O)O)C(c3ccc4c(c3)OCO4)Oc3ccc(OC(C)C)cc32)s1 (stereo not given) | 1 | 1800 | –
49 | CNS(=O)(=O)Nc1ncnc(OCCOc2ncc(SC)cn2)c1-c1ccc(Br)cc1 | 2 | 290 | –
50 | COc1ccccc1Oc1c(NS(=O)(=O)c2ccc(C(C)C)cn2)nc(N2CCOCC2)nc1OCC#CCOC(=O)c1ccccn1 | 1 | 42 | Kb (Endothelin-1 receptor [5]): 20 nM
